Laboratory results taken from patent US20250114460A1, “NOVEL PLK1 DEGRADATION INDUCING COMPOUND” (UPPTHERA, INC., priority 2021, published 2025).

Assays:
Format in all cases: cell-based
PLK1 = target: T1, PLK1 (Homo sapiens, UniProt P53350); assay: Luciferase assay for PLK1 in HeLa LgBit (Plk1-HiBit KI) cell line; conditions: 300 nM compound, luminescence after 9 hours
T1 construct: endogenous in cells; host or cells: HeLa LgBit (Plk1-HiBit KI): HeLa stably expressing LgBit, with a CRISPR/Cas9 knock-in of HiBit at the endogenous PLK1 locus
Procedure, shortened: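 HeLa cells stably expressing LgBit, with HiBit knocked in at the C-terminus of endogenous Plk1, released from a 24 h 2 mM thymidine block and grown 18 h. Endurazine added, then compound at 300 nM; luminescence tracked in real time, expressed as ratio to DMSO.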

MRC-5 cell line = assay: Cell viability assay for MRC-5 cell line (EZ-Cytox); conditions: for IC50: Homo sapiens, MRC5, 120 h, MRC-5 normal cell line, 5 days, 10000 nM to 1.52 nM, N.D. = no cytotoxicity until 10 μM, read-out: Activity: IC50 value of Exemplary Compound to MRC-5 cell line
Procedure: 4. Cell Viability Assay for MRC-5 Cell Line
(1) Culture of MRC-5 Cell Line
Passage of cultured cells was maintained within P15.
(2) Treatment of Compounds of the Present Invention
Then, it was cultured in 37° C.
(3) Cytotoxicity Experiment
CO2 incubator for 4 hours.

NCI-H526 cell line = assay: Cell viability assay for H526 cell (EZ-Cytox); conditions: Homo sapiens, NCI-H526, 120 h; H526 cells, 5 days, 3000 nM to 0.46 nM
Procedure: (1) Culture of NCI-H526 Cell Line
(2) Treatment of Compounds of the Present Invention and Method of Cell Viability Assay
After treating the compound to each well to make the total volume of 200 μL, it was cultured in a CO2 incubator (Thermo Fisher Science, Cat. No. 4111) for 5 days.
The absorbance of the completely cultured sample was measured by setting the wavelength of a plate reader (BMG Labtech, CLARIOstar Plus) to […], and was measured after shaking for 3 minutes in a plate reader before measurement.
In Table 3, Activity represents IC50 value of each Exemplary Compound treatment group to H526 cell line (A: <30 nM, B: <50 nM, C: <100 nM, D: <200 nM, E: <400 nM).

T1 sequence (P53350 whole entry): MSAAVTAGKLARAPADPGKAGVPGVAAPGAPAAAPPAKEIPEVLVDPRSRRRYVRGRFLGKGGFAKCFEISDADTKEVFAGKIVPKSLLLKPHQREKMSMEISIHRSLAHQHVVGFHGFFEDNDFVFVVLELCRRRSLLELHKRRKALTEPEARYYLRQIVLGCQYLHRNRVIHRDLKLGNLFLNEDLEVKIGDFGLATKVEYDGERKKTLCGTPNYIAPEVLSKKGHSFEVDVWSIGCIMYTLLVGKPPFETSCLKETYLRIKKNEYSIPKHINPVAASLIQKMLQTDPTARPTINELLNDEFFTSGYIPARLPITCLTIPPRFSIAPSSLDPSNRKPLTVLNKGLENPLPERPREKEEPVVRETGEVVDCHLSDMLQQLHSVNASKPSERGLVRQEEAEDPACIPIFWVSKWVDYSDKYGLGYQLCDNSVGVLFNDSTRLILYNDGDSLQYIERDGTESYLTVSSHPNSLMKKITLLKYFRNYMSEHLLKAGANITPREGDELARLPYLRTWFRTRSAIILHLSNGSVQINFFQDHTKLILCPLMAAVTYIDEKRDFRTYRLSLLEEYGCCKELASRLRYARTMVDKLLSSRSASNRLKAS

For `C=C[C@@]1(F)CN(C2CCCC2)c2nc(Nc3ccc(C(=O)NC4CCN(C(=O)CCN5CCN(c6cccc7c6C(=O)N(C6CCC(=O)NC6=O)C7=O)CC5)CC4)cc3OC)ncc2N(C)C1=O` (single isomer, unassigned) [Compound 108], the “Activity: ratio of the luminescense value of each Exemplary Compound treatment group to DMSO treatment group” value (“Activity: ratio” for short) (PLK1) was “++ (++<0.6)”, the IC50 (MRC-5 cell line) was greater than 10 µM and the IC50 (NCI-H526 cell line) was less than 0.1 µM.
With `CC[C@@H]1C(=O)N(C)c2cnc(Nc3ccc(C(=O)NCCOCCOCCNc4cccc5c4C(=O)N(C4CCC(=O)NC4=O)C5=O)cc3OC)nc2N1C1CCCC1` (stereo partly shown) [Comparative Compound 1, reference compound] the “cytotoxicity in normal cell line” value (MRC-5 cell line; MRC-5, in words) was “exhibited a high level of cytotoxicity in normal cell line”.
With `COc1cc(C(=O)NC2CCN(CCOc3cccc4c3C(=O)N(C3CCC(=O)NC3=O)C4=O)CC2)ccc1Nc1ncc2c(n1)N(C1CCCC1)CC(F)(F)C(=O)N2C` (stereo not shown) [Compound 5, 4-((9-cyclopentyl-7,7-difluoro-5-methyl-6-oxo-6,7,8,9-tetrahydro-5H-pyrimido[4,5-b][1,4]diazepin-2-yl)amino)-N-(1-(2-((2-(2,6-dioxopiperidin-3-yl)-1,3-dioxoisoindolin-4-yl)oxy)ethyl)piperidin-4-yl)-3-methoxybenzamide] the “Activity: ratio” value (PLK1) was “++ (++<0.6)”, the IC50 (MRC-5 cell line) was 20 µM and the IC50 (NCI-H526 cell line) was less than 0.4 µM.
For `COc1cc(C(=O)N[C@H]2CCN(CCOc3cccc4c3C(=O)N(C3CCC(=O)NC3=O)C4=O)C2)ccc1Nc1ncc2c(n1)N(C1CCCC1)CC(F)(F)C(=O)N2C` (stereo partly drawn) [Compound 9, 4-((9-cyclopentyl-7,7-difluoro-5-methyl-6-oxo-6,7,8,9-tetrahydro-5H-pyrimido[4,5-b][1,4]diazepin-2-yl)amino)-N-((3S)-1-(2-((2-(2,6-dioxopiperidin-3-yl)-1,3-dioxoisoindolin-4-yl)oxy)ethyl)pyrrolidin-3-yl)-3-methoxybenzamide], the “Activity: ratio” value (PLK1) was “++ (++<0.6)” and the IC50 (MRC-5 cell line) was greater than 10 µM.
In the case of `CN1C(=O)C(F)(F)CN(C2CCCC2)c2nc(Nc3ccc(C(=O)NC4CCN(C(=O)CCCNc5cccc6c5C(=O)N(C5CCC(=O)NC5=O)C6=O)CC4)cc3OC(F)(F)F)ncc21` (stereo not shown) [Compound 28, 4-((9-cyclopentyl-7,7-difluoro-5-methyl-6-oxo-6,7,8,9-tetrahydro-5H-pyrimido[4,5-b][1,4]diazepin-2-yl)amino)-N-(1-(4-((2-(2,6-dioxopiperidin-3-yl)-1,3-dioxoisoindolin-4-yl)amino)butanoyl)piperidin-4-yl)-3-(trifluoromethoxy)benzamide], the “Activity: ratio” value (PLK1) is reported as “++ (++<0.6)” and the IC50 (MRC-5 cell line) is reported as greater than 10 µM.
With `COc1cc(C(=O)NC2CCN(CC3CN(c4cccc5c4C(=O)N(C4CCC(=O)NC4=O)C5=O)C3)CC2)ccc1Nc1ncc2c(n1)N(C1CCCC1)CC(F)(F)C(=O)N2C` (stereo not shown) [Compound 135, 4-((9-cyclopentyl-7,7-difluoro-5-methyl-6-oxo-6,7,8,9-tetrahydro-5H-pyrimido[4,5-b][1,4]diazepin-2-yl)amino)-N-(1-((1-(2-(2,6-dioxopiperidin-3-yl)-1,3-dioxoisoindolin-4-yl)azetidin-3-yl)methyl)piperidin-4-yl)-3-methoxybenzamide] the “Activity: ratio” value (PLK1) was “+++ (+++: <0.3)” and the IC50 (NCI-H526 cell line) was less than 0.05 µM.
With `COc1cc(C(=O)NC2CCCN(C(=O)N3CCN(c4cccc5c4C(=O)N(C4CCC(=O)NC4=O)C5=O)CC3)C2)ccc1Nc1ncc2c(n1)N(C1CCCC1)CC(F)(F)C(=O)N2C` (stereo not shown) [Compound 145, 4-((9-cyclopentyl-7,7-difluoro-5-methyl-6-oxo-6,7,8,9-tetrahydro-5H-pyrimido[4,5-b][1,4]diazepin-2-yl)amino)-N-(1-(4-(2-(2,6-dioxopiperidin-3-yl)-1,3-dioxoisoindolin-4-yl)piperazine-1-carbonyl)piperidin-3-yl)-3-methoxybenzamide] the “Activity: ratio” value (PLK1) was “+++ (+++: <0.3)” and the IC50 (NCI-H526 cell line) was less than 0.05 µM.
With `COc1cc(C(=O)N[C@@H]2CCCN(C(=O)CN3CCN(c4cccc5c4C(=O)N(C4CCC(=O)NC4=O)C5=O)CC3)C2)ccc1Nc1ncc2c(n1)N(C1CCCC1)CC(F)(F)C(=O)N2C` (stereo partly drawn) [Compound 146, 4-((9-cyclopentyl-7,7-difluoro-5-methyl-6-oxo-6,7,8,9-tetrahydro-5H-pyrimido[4,5-b][1,4]diazepin-2-yl)amino)-N-((3R)-1-(2-(4-(2-(2,6-dioxopiperidin-3-yl)-1,3-dioxoisoindolin-4-yl)piperazin-1-yl)acetyl)piperidin-3-yl)-3-methoxybenzamide] the “Activity: ratio” value (PLK1) was “+++ (+++: <0.3)” and the IC50 (NCI-H526 cell line) was less than 0.05 µM.
`COc1cc(C(=O)N[C@H]2CCCN(C(=O)CN3CCN(c4cccc5c4C(=O)N(C4CCC(=O)NC4=O)C5=O)CC3)C2)ccc1Nc1ncc2c(n1)N(C1CCCC1)CC(F)(F)C(=O)N2C` (stereo partly drawn) [Compound 147, 4-((9-cyclopentyl-7,7-difluoro-5-methyl-6-oxo-6,7,8,9-tetrahydro-5H-pyrimido[4,5-b][1,4]diazepin-2-yl)amino)-N-((3S)-1-(2-(4-(2-(2,6-dioxopiperidin-3-yl)-1,3-dioxoisoindolin-4-yl)piperazin-1-yl)acetyl)piperidin-3-yl)-3-methoxybenzamide] was tested, and the “Activity: ratio” value (PLK1) was “+++ (+++: <0.3)” and the IC50 (NCI-H526 cell line) was less than 0.05 µM.
With `COc1cc(C(=O)N2CCC(N3CCC(C#Cc4ccc5c(c4)C(=O)N(C4CCC(=O)NC4=O)C5=O)CC3)CC2)ccc1Nc1ncc2c(n1)N(C1CCCC1)CC(F)(F)C(=O)N2C` (stereo not shown) [Compound 182, 5-((1′-(4-((9-cyclopentyl-7,7-difluoro-5-methyl-6-oxo-6,7,8,9-tetrahydro-5H-pyrimido[4,5-b][1,4]diazepin-2-yl)amino)-3-methoxybenzoyl)-[1,4′-piperidin]-4-yl)ethynyl)-2-(2,6-dioxopiperidin-3-yl)isoindoline-1,3-dione] the “Activity: ratio” value (PLK1) was “++ (++<0.6)” and the IC50 (MRC-5 cell line) was 9.75 µM.
With `COc1cc(C(=O)N2CCC(N3CCN(CCOCCCNc4cccc5c4C(=O)N(C4CCC(=O)NC4=O)C5=O)CC3)CC2)c(F)cc1Nc1ncc2c(n1)N(C1CCCC1)CC(F)(F)C(=O)N2C` (stereo not shown) [Compound 190, 4-((3-(2-(4-(1-(4-((9-cyclopentyl-7,7-difluoro-5-methyl-6-oxo-6,7,8,9-tetrahydro-5H-pyrimido[4,5-b][1,4]diazepin-2-yl)amino)-2-fluoro-5-methoxybenzoyl)piperidin-4-yl)piperazin-1-yl)ethoxy)propyl)amino)-2-(2,6-dioxopiperidin-3-yl)isoindoline-1,3-dione] the “Activity: ratio” value (PLK1) was “++ (++<0.6)” and the IC50 (NCI-H526 cell line) was less than 0.03 µM.
For `COc1cc(C(=O)NN2CCC(N3CC4(CCN(c5cccc6c5CN(C5CCC(=O)NC5=O)C6=O)CC4)C3)CC2)ccc1Nc1ncc2c(n1)N(C(C)C)CC(F)(F)C(=O)N2C` (stereo not shown) [Compound 218, 4-((7,7-difluoro-9-isopropyl-5-methyl-6-oxo-6,7,8,9-tetrahydro-5H-pyrimido[4,5-b][1,4]diazepin-2-yl)amino)-N-(4-(7-(2-(2,6-dioxopiperidin-3-yl)-1-oxoisoindolin-4-yl)-2,7-diazaspiro[3.5]nonan-2-yl)piperidin-1-yl)-3-methoxybenzamide], the “Activity: ratio” value (PLK1) was “++ (++<0.6)” and the IC50 (NCI-H526 cell line) was less than 0.05 µM.
